Test system: VACV
Format: cell-based, vaccinia virus
Details: 100 pfu VACV, 48 HPI

C=C(C)[C@@H]1CC[C@]2(C)CC[C@]3(C)[C@H](CC[C@@H]4[C@@]5(C)CC[C@H](O)C(C)(C)[C@@H]5CC[C@]43C)[C@@H]12 [lupeol]
antiviral activity (VACV plaques): did not show suitable antiviral activity

Source: patent publication US20250262263A1, “METHOD AND COMPOSITIONS FOR THE USE OF BOTANICAL EXTRACTS IN THE TREATMENT OF VIRAL INFECTIONS” (priority 2024, published 2025)
